{"source": "patent US9289505B2", "about": "“Compositions and methods for delivering nucleic acid molecules and treating cancer” (Rutgers, The State University of New Jersey, priority 2010, dated 2016)", "key": {"[1]": {"assay": "Serum stability of siRNA and PAMAM-PEG-PLL-siRNA complex", "format": "in vitro ADME", "details": "50% human serum, 37° C.", "protocol": "Serum stabilities of naked siRNA and siRNA complexed with PAMAM-PEG-PLL nanocarrier were investigated by incubating siRNA or PAMAM-PEG-PLL-siRNA complex in 50% human serum at 37° C. Ten samples were prepared by mixing siRNA (30 nmol) in water with PAMAM-PEG-PLL (74.8 nmol, N/P=3) solution in water and separately incubated for 30 minutes at room temperature. In the case of naked siRNA, equal volume of RNAase free water was used instead of nanocarrier. To each of these samples 50% human plasma was added (final siRNA concentration was 1.43 nM) and incubated at 37° C. Samples were removed at an indicated time intervals (0, 0.25, 0.5, 0.75, 1, 3, 6, 12, 24 and 50 hours) and analyzed using a gel electrophoresis (4% agarose gel at 100 V for 50 minutes) in Tris-Borate-EDTA buffer containing EtBr. siRNA bands on the gel were visualized under ultraviolet light. PAMAM-PEG-PLL-siRNA samples were pre-treated with polymethacrylic acid to release free siRNA from cationic nanocarriers. 100 μL of polymethacrylic acid solution (4 μM) was added to the complexes (triblock nanocarrier/siRNA=3) and incubated at 37° C. with 50% human plasma. The released siRNA was then analyzed by a gel electrophoresis."}, "[2]": {"tested_on": "A549 human lung cancer cells", "assay": "Cellular internalization of FAM-labelled siRNA", "format": "cell-based", "details": "24 hours, siRNA 0.25 μM, fluorescence microscopy", "protocol": "Prior to the visualization, A549 cells were plated (20,000 cells per well) in a 6-well tissue culture plate. The cells were treated within 24 hours with the siRNA complex prepared with different generations of PPI dendrimer. The treatment of the A549 cells was performed in such a manner that the final concentration of siRNA was 0.25 μM and the concentrations of PPI G2, G3, G4, and G5 dendrimers were 3.15 μM, 1.58 μM, 0.79 μM, and 0.39 μM, respectively. After 24 hours of treatment, the cells were washed three times with Phosphate Buffered Saline (PBS) and 1 mL of media was added to each well. Cellular internalization of siRNA-dendrimer complexes were analyzed by fluorescent (Olympus America Inc., Melville, N.Y.) and confocal (Leica Microsystems Inc., Bannockburn, Ill.) microscopes. To obtain intracellular distribution of siRNA, ten optical sections, known as a z-series, were photographed sequentially, by confocal microscope, along the vertical (z) axis from the top to the bottom of the cell. The obtained fluorescent images were digitally scanned and fluorescence inside cells (reflecting intracellular accumulation of labelled siRNA) was expressed in arbitrary units."}, "BCL2 gene": {"tested_on": "BCL2 gene", "assay": "BCL2 gene expression, RT-PCR", "format": "cell-based, human", "details": "A2780 cells, BCL2 siRNA 1 μM delivered by the named carrier, 24 hours", "protocol": "Reverse transcription-polymerase chain reaction (RT-PCR) was used for the analysis of gene expression (Pakunlu et al. (2004) Cancer Res., 64:6214-6224). […] After 24 hours, total cellular RNA was isolated using an RNeasy kit (Qiagen, Valencia, Calif.). […] After synthesis, the reaction mixture was immediately subjected to polymerase chain reaction (PCR), which was carried out using […] System 2400 (Perkin-Elmer, Shelton, Conn.). β2-microglobulin (β2-m) was used as an internal standard. The following pairs of primers were used: BCL2: [NT] (sense; SEQ ID NO: 6), [NT] (antisense; SEQ ID NO: 7); β2-m (internal […] (sense; SEQ ID NO: 8), [NT] (antisense; SEQ ID NO: 9). PCR regimen was as follows: 94° C. for 5 minutes; 94° C. for 1 minute, 55° C. for 1 minute, and 72° C. for 1 minute for 41 cycles; and 60° C. for 10 minutes. PCR products were separated in 4% NuSieve 3:1 Reliant-agarose gels (Lonza, Basel, Switzerland) in 1× Tris-borate EDTA buffer [0.089 mol/L Tris-borate, 0.002 mol/L EDTA (pH 8.3); Research Organics Inc., Cleveland, Ohio] by submarine electrophoresis. The gels were stained with EtBr and digitally photographed."}, "[3]": {"tested_on": "subcutaneous tumor xenografts of human A549 cancer cells", "assay": "Antitumor activity in subcutaneous A549 xenografts", "details": "intratumoral 3 times within 10 days", "method": "NCR nude mice (female, 6 weeks, 20 g) were purchased from Taconic Farms, Inc. (Germantown, N.Y.). […] Briefly, A549 human cancer cells transfected with luciferase (5×10^6) were subcutaneously transplanted into the flanks of female athymic nu/nu mice. According to the approved institutional animal use protocol, the tumors were measured by a caliper every other day and their volumes were calculated as d^2×D/2 where d and D are the shortest and longest diameter of the tumor in mm, respectively. When the tumor reached a mean size of 50 mm^3, mice were divided into seven groups and injected intratumorally 3 times within 10 days with 150 μL of the following formulations: (1) saline (control); (2) free non-bound LHRH; (3) free non-bound siRNA; (4) free non-bound CIS; (5) Mixture of CIS and SPIO-PPI G5; (6) Mixture of CIS and SPIO-PPI G5-siRNA; and (7) Mixture of CIS and SPIO-PPI G5-siRNA-PEG-LHRH complexes. The concentrations of CIS and siRNA in the formulations were 2.5 mg/kg and 30 μM, respectively. Changes in tumor size were monitored by real-time bioluminescence in anesthetized animals by IVIS imaging system (Xenogen Bioscience, Cranbury, N.J.)."}, "BCL2 mRNA": {"tested_on": "BCL2 mRNA", "assay": "BCL2 gene silencing by siRNA-dendrimer complexes, RT-PCR", "format": "cell-based, human", "details": "A549 cells, 24 hours incubation", "protocol": "Quantitative reverse transcription-polymerase chain reaction (RT-PCR) was used for the analysis of expression of genes encoding BCL2 protein and β2-microglobulin (internal standard) as previously described (Pakunlu et al. (2003) Pharm. Res., 20:351-359). RNA was isolated after 24 hours incubation of cancer cells with siRNA-dendrimer complexes, using an RNeasy kit (Qiagen, Valencia, Calif.). First strand complementary DNA (cDNA) was synthesized by Ready-To-Go You-Prime First-Strand Beads (Amersham Biosciences, Piscataway, N.J.) with […] of total cellular RNA and 100 ng of random hexadeoxynucleotide primer (Amersham Bioscience, Piscataway, N.J.). After synthesis, the reaction mixture was immediately subjected to PCR, which was carried out using GenAmp® PCR System 2400 (Perkin-Elmer, Shelton, Conn.). The following pairs of primers were used: BCL2-GGATTGTGGCCTTCTTTGAG (sense; SEQ ID NO: 6), CCAAACTGAGCAGAGTCTTC (antisense; SEQ ID NO: 7); β2-microglobulin (β2-m)-ACCCCCACTGAAAAAGATGA (sense; SEQ ID NO: 8), ATCTTCAAACCTCCATGATG (antisense; SEQ ID NO: 9). […] Gene expression was calculated as the ratio of mean band intensity of analyzed RT-PCR product (BCL2) to that of the internal standard (β2-m). […]"}, "[4]": {"tested_on": "A2780 human ovarian cancer cells", "assay": "Cellular uptake of fluorophore labeled siRNA, confocal microscopy", "format": "cell-based", "details": "living cells", "protocol": "Cellular uptake and intracellular localization of siRNA was investigated using a confocal microscopy. In this experiment, living cancer cells were incubated with fluorophore labeled naked siRNA (siGLO® Red, red fluorescence) and siRNA complexed with cationic nanocarrier PAMAM-PEG-PLL (N/P=3). Cellular uptake studied substances was monitored in living cells placed in a chamber at 37° C. within 1 hour. Cellular localization of siRNA was examined on fixed and washed cells after the incubation for 24 hours with the substances. Fluorescence and its distribution within the cell were examined using a confocal microscope."}}, "note": "d = 2'-deoxy (DNA); r = 2'-OH (RNA)"}
{"substance": "5′-GUGAAGUCAACAUGCCUGC-dTdT-3′ (sense strand; SEQ ID NO: 4) and 5′-GCAGGCAUGUUGACUUCAC-dTdT-3′ (antisense strand; SEQ ID NO: 5) (sense GUGAAGUCAACAUGCCUGCTT; antisense GCAGGCAUGUUGACUUCACTT; sugars from the 5' end r19 d2, backbone not given here) [naked siRNA, siRNA targeted to BCL2 mRNA without carrier; fluorophore labelled siRNA used in uptake tests]", "values": [{"measurement": "incubation time after which siRNA started to degrade", "setting": "[1]", "value": 1, "unit": "h"}, {"measurement": "siRNA cellular internalization", "setting": "[2]", "value": "not internalized by the cells"}, {"measurement": "expression of targeted BCL2 gene, from control value", "setting": "BCL2 gene", "value": "did not influenced"}, {"measurement": "tumor growth / antitumor activity", "setting": "[3]", "value": "did not significantly influence the growth of the tumor"}, {"measurement": "BCL2 gene knockdown", "setting": "BCL2 mRNA", "value": "Gene silencing was not observed"}, {"measurement": "cellular uptake of siRNA", "setting": "[4]", "value": "did not penetrate the cancer cells"}]}
